What was measured:
[1] = Singlet oxygen quenching (RNO bleaching at 440 nm, methylene blue sensitizer, UV A); format: biochemical; conditions: for Singlet oxygen scavenging behaviour: FIG. 3; for IC50% (μg/ml), singlet oxygen quenching ability: RNO bleaching at 440 nm, 20 min UV A
Protocol: A solution of N,N-dimethyl-p-nitrosoaniline (RNO) and histidine and a known sensitizer (e.g. methylene blue) is exposed to UV A. Singlet oxygens generated under UV A induce a bleaching of RNO which can be measured spectrophotometrically at 440 nm. The efficiency of test products in terms of singlet oxygen scavenging is measured at 440 nm for various concentrations.
All measurements were performed at room temperature (24 C) with a Beckman Coulter DU-640 spectrophotometer at a scan speed of 120 nm/min with a spectral range from 300 to 700 nm.
150, Sigma-Aldrich • RNO (19 mg) dissolved in 50 ml of Buffer solution subsequent dilution by factor 25 in de-ionized water. • L-Histidine Solution (40 mM) • Mol. Wt. […] 320, Sigma-Aldrich • 5 mg are dissolved in distilled water (100 ml) subsequent dilution at 6.4 ml in 25 ml of de-ionized water. b) Antioxidant Solutions: • Ascorbic acid (0.5 mM) • Mol. Wt.
The stock solutions were added in an orderly manner with quantities according to the table below as to obtain a final total volume of 4.5 ml for each preparation. First, the RNO buffered solution was taken, followed by addition of L-Histidine and the sensitizer Methylene Blue. Then, the antioxidant solution was added and topped off to 4.5 ml total volume with buffer solution. This preparation was exposed to UV A radiation (˜35 W/m^2) for 20 min to generate singlet oxygens. The light absorption spectra were then recorded and the optical density measured at 440 nm (corresponding to RNO). The inverse of the light absorbances at 440 nm is then plotted as a function of the concentration in antioxidant.

[2] = Photostabilization and color change of Vanillin in ethanolic solution under sun simulator; format: physicochemical; conditions: for Color change of Vanillin in solution (new light absorption band around 390 nm, yellow color): with and without stabilizer, FIG. 1; for Relative absorption of Vanillin at 281 nm (%): ethanolic solution
Protocol: (§1) In Solution: Solutions in ethanol are prepared at respective concentrations of photosensitive materials and photostabilizer (typically 1:1 to 1:5 in weight %). […] The amount of photosensitive materials remaining in solution is calculated from the ratio of their maximal absorption band (λmax), before and after irradiation.
(§2) Amount of energy: 10 mJoules/Cm^2=1 MED
Photostabilization Results of Vanillin in Ethanolic Solution
Color Change of Vanillin in Solution Under Sun Simulator With and Without Diethylhexyl Syringylidene Malorate in Solution
Photostabilization Results of Vanillin in Ethanolic Solution with isoamyl-alpha-acetyl-3,5-dimethoxy-4-hydroxy cinnamate

[3] = Color change of Menthyl anthranilate in solution under sun simulator; format: physicochemical; conditions: menthyl anthranilate:stabilizer 1:5, FIG. 2
Protocol: (§3) In Solution: Solutions in ethanol are prepared at respective concentrations of photosensitive materials and photostabilizer (typically 1:1 to 1:5 in weight %). Solutions are exposed to a sun simulator (754 W/m^2, 2 MED/h,) for various durations and light absorption spectra recorded for each sample at given times. The amount of photosensitive materials remaining in solution is calculated from the ratio of their maximal absorption band (λmax), before and after irradiation.
Color Change of Menthyl Anthranilate Under Sun Simulator With and Without Diethylhexyl Syringylidene Malonate in Solution

[4] = Photostability of Guaiazulene in a shampoo formulation under sun simulator; format: physicochemical; conditions: stabilizer 0.1% in the shampoo
Protocol: In Formulation: Samples are prepared as ultrathin films between two quartz plates as to obtain a minimum of 90% light transmission over the entire spectrum range of non absorbing chromophores. For example, ingredients which absorb only in the UV will be tested in formulation to obtain a minimum of 90% light transmission over the visible range. Samples are then irradiated under sun simulator (754 W/m^2, typically 2 MED/h) for given times and light absorption spectra recorded at each time. The remaining percentage of photosensitive compounds is calculated from the light absorption maximum (λmax) of the corresponding peak in the absorption spectrum.
as §2
Formulation Used for the Study Described in Example-5
Procedure: Combine A and heat to 70–75° C., except for U-care JR-400. Disperse U-care JR-400 in A under agitation. Add ingredients of phase B one by one at 70° C. Add phase C at 40° C. Premix Phase D and add to batch at 40° C. At 35° C. add phase E. Adjust pH (˜6.5) and viscosity with phase F.

[5] = Photostabilization of natural Tocopherols in ethanolic solution under sun simulator; format: physicochemical; conditions: stabilizer 0.05%
Protocol: as §3, §2
Photostabilization Results of Natural Tocopherols in Ethanolic Solution

[6] = Photostability of β carotene in lotion under sun simulator; conditions: stabilizer 0.2%, β carotene 0.02%
[7] = Photostabilization of Guaiazulene in ethanolic solution under sun simulator; format: physicochemical; conditions: for Relative absorption of Guaiazulene at 600 nm (%): ethanolic solution, sun simulator
Protocol: as §1, §2
Photostabilization Results of Guaiazulene in Ethanolic Solution

[8] = Photostability of β carotene in lotion at room temperature, visible light, one month; conditions: room temperature storage

## O=C1O[C@H]([C@@H](O)CO)C(O)=C1O [Ascorbic acid, reference compound]
[1]
  Singlet oxygen scavenging behaviour: pro-oxidant
  IC50% (μg/ml), singlet oxygen quenching ability: Pro-oxidant

## CCCCC(CC)COC(=O)C(=Cc1cc(OC)c(O)c(OC)c1)C(=O)OCC(CC)CCCC (stereo not drawn) [Diethylhexyl syringylidene malonate, Di-2-ethylhexyl 3,5 dimethoxy 4 hydroxy benzylidene malonate]
[2]
  Color change of Vanillin in solution (new light absorption band around 390 nm, yellow color): does not appear
[3]
  Color change of Menthyl anthranilate (new light absorption band around 390 nm, yellow color): prevents any alteration/degradation of the fragrance
[4]
  Effect of stabilizer on photostability of Guaiazulene in shampoo: clear improvement in the photostability of Guaiazulene
[5]
  Effect of stabilizer on photostability of Tocopherols in solution: clear improvement in the photostability of Tocopherols
[1]
  Singlet oxygen scavenging behaviour: efficient singlet oxygen scavengers, better than Vitamin E
  IC50% (μg/ml), singlet oxygen quenching ability: 80 µg/mL
[6]
  Effect of stabilizer on photostability of β carotene in lotion: clear improvement in the photostability of β carotene

## COc1cc(C=C(C(C)=O)C(=O)OCCC(C)C)cc(OC)c1O [Eusolex ASA ™, Isoamyl alpha acetyl-3,5 dimethoxy 4 hydroxy benzylidene malonate]
[1]
  Efficiency as an antioxidant (ranking): best efficiency as an antioxidant
  Singlet oxygen scavenging behaviour: efficient singlet oxygen scavengers, better than Vitamin E
  IC50% (μg/ml), singlet oxygen quenching ability: 61 µg/mL

## CCOS(=O)(=O)[O-].CCOS(=O)(=O)[O-].CC[N+](C)(C)CCCNC(=O)C(=Cc1cc(OC)c(O)c(OC)c1)C(=O)NCCC[N+](C)(C)CC [Eusolex HP ™, Bis-N-[3′-(N′,N′-Dimethylethylammonium)propyl]-3,5-dimethoxy-4-hydroxy benzylidene malonamide bis ethyl sulfate]
[1]
  Singlet oxygen scavenging behaviour: efficient singlet oxygen scavengers, better than Vitamin E
  IC50% (μg/ml), singlet oxygen quenching ability: 104 µg/mL

## Cc1ccc(C(C)C)cc2c(C)ccc1-2 [Guaiazulene]
[7]; 0 MED
  Relative absorption of Guaiazulene at 600 nm (%): 100%
[7]; 2 MED
  Relative absorption of Guaiazulene at 600 nm (%): 83%
[7]; 5 MED
  Relative absorption of Guaiazulene at 600 nm (%): 43%
[7]; 10 MED
  Relative absorption of Guaiazulene at 600 nm (%): 6%
[7]; total energy of 100 mJ/cm^2
  Guaiazulene lost when exposed to solar simulator: ~90%

## CC1CCC(C(C)C)C(OC(=O)c2ccccc2N)C1 (stereo not drawn) [Menthyl anthranilate]
[3]
  Color change of Menthyl anthranilate (new light absorption band around 390 nm, yellow color): a new light absorption band for menthyl antranillate appears around 390 nm

## Cc1c(C)c2c(c(C)c1O)CCC(C)(C(=O)O)O2 (stereo not drawn) [Trolox C, S-hydroxy-tetramethylchroman carboxylic acid, reference compound]
[1]
  IC50% (μg/ml), singlet oxygen quenching ability: 88 µg/mL

## COc1cc(C=O)ccc1O [Vanillin]
[2]; 0 MED
  Relative absorption of Vanillin at 281 nm (%): 100%
[2]; 2 MED
  Relative absorption of Vanillin at 281 nm (%): 45%
[2]; 5 MED
  Relative absorption of Vanillin at 281 nm (%): 40%
[2]; 10 MED
  Relative absorption of Vanillin at 281 nm (%): 36%
[2]
  Color change of Vanillin in solution (new light absorption band around 390 nm, yellow color): a new light absorption band appears around 390 nm

## CC1=C(/C=C/C(C)=C/C=C/C(C)=C/C=C/C=C(C)/C=C/C=C(C)/C=C/C2=C(C)CCCC2(C)C)C(C)(C)CCC1 [β-carotene]
[8]
  Stability of β-carotene in ambient light: degrades in ambient light at room temperature storage
